Experimental data from patent publication US20160243136A1, “PHARMACEUTICAL FORMULATIONS CONTAINING MITOCHONDRIALLY TARGETED ANTIOXIDANTS” (Mitotech SA, priority 2013, published 2016).
“Also recorded” adds a separate entry of the source.

Experiments:
[1] = tested on: renal tubular cells (RTC); experiment: In vitro inflammation model: renal tubular cells co-cultivated with bacterial lysate-activated leukocytes; assay type: cell-based, rat; details: for renal cell death (Annexin V-positive): 48 hr exposure to activated leukocytes, pre-incubation with drug; for TNF release in RTC-leukocyte co-culture: activated leukocytes (LC+BL)
Protocol: Kidneys from 1-3 day old rats were excised under aseptic conditions. The tissue was blended and dissociated by collagenase treatment (0.5%, 30 min at 37° C.). The final suspension was centrifuged for 5 min at 50 g. The pellet was resuspended in about 10 ml of DMEM/F12 (Gibco, USA) supplemented with 10% FCS (Gibco, USA) and kept for 2 min, after which the supernatant was transferred to another tube and the pellet was repeatedly resuspended. After 10 min, the renal tubules were pelleted and dissociated cells remaining in the suspension were discarded. The pellet was resuspended in DMEM/F12 with 10% FCS and seeded onto 24-well plates or onto coverslips placed in 35-mm glass-bottom Petri dishes.
E. coli strain No. 85 was cultured overnight in a cultivation medium containing 1% tryptone, 0.5% yeast extract and 1% NaCl (Sigma-Aldrich, USA). The medium, containing roughly 10^9 colony-forming units (CFU) per ml, was pelleted at 300 g for 3 min. The bacterial lysate was prepared by diluting 30 ml of an overnight (ON) culture and diluting the precipitate in 3 ml of 0.9% NaCl followed by autoclaving for 1.5 hr at 120° C.
5 ml heparinized blood collected from the jugular vein of adult male rats was carefully layered over 5 ml of Ficoll-Urografin (density of 1.077 g/cm^3), and centrifuged for 30 min at 200 g. This procedure results in erythrocyte pelleting, while the mononuclear fraction of leukocytes forms an interphase ring on the Ficoll surface, which was carefully collected. Leukocytes were transferred into another tube and centrifuged for 3 min at 200 g. The resultant pellet was resuspended in 5 ml of DMEM/F12. After cell counting in a hemocytometer, the cells were diluted to a final concentration of about 1×10^5 cells per ml.
In a two-day old renal cell culture, the medium was substituted with DMEM/F12 (400 μl per well, 1600 μl per dish), supplemented with (depending on the purpose): GSK-3β inhibitor LiCl (9 mM) (Sigma-Aldrich, USA), water-soluble antioxidant Trolox (50 μM, 100 μM) (Sigma-Aldrich, USA), MTAs 10-(6-plastoquinonyl)decyl-triphenylphosphonium (SkQ1), synthesized according to Antonenko et al. (2008) Biochemistry (Mosc) 73:1273-87), 10 nM, 100 nM), and 10-(6′-plastoquinonyl) decylrhodamine 19 SkQR1), synthesized according to Antonenko (2008), (1 nM, 10 nM, or 100 nM). Renal cells were incubated for 2 hr in this medium, followed by supplementation with leukocytes or neutrophils in DMEM/F12, or DMEM/F12, alone, in the control sample (400 μl per well, 1600 μl per dish). Simultaneously, the bacterial lysate or lipopolysaccharide (100 ng/ml, LPS, Sigma-Aldrich, USA) solution in DMEM/F12 and DMEM/F12 alone in the control sample (100 μl per well, 400 μl per dish) were added. Renal cells, leukocytes (neutrophils) were co-cultivated for 24 or 48 hr with bacterial lysate or LPS. Cell death (both necrotic and apoptotic) rate was evaluated using Annexin-V FITC Kit (Invitrogen, USA).
(§1) The ROS-sensitive fluorescent probe 2,7-DCF-DA (Molecular Probes, USA) dissolved in DMEM/F12 without bicarbonate (final concentration 10 μM) was added to renal cells (500 μl per well of 24-well plate, 2 ml per dish) and incubated for 15 min at 37° C. followed by a wash with DMEM/F12 without bicarbonate. MDA was determined as in (Mihara and Uchiyama (1978) Anal. Biochem. 86:271-8). Fluorescent probe, DAF-2-DA (Calbiochem, San Diego, Calif., USA) was used for NO determination in living cells. The procedure was the same as for 2,7-DCF-DA. The nitrite/nitrate concentration (as products of NO oxidation) in culture media was determined using Nitrite/Nitrate Assay Kit (Sigma-Aldrich, USA). TNFα was determined using the kit Rat TNFα ELISA Ready-SET-Go (Ebioscience, USA).
Renal cells were imaged with an LSM510 inverted confocal microscope (Carl Zeiss Inc., Jena, Germany) with excitation at 488 nm and emission collected at 500 nm-530 nm with a pinhole diameter of 150 μm. Images were processed using ImageJ software (NIH, Bethesda, Md., USA).

rat model of APN = experiment: In vivo rat model of acute pyelonephritis (APN), bacteria introduced in the bladder
Protocol: An in vivo experimental model of APN was used where bacteria are introduced in the bladder of rat (Gupta et al. (1995) J. Med. Microbiol. 43:33-36). Experiments were performed on outbred white female rats (180-200 g) fed ad libitum. Animal protocols were approved by the Institutional Review Boards. Rats were anesthetized with chloral hydrate (300 mg/kg, intraperitoneally(ip)). The animals were infected intraurethrally using a soft Intramedic non-radio-opaque polyethylene catheter (Clay Adams, USA). The inoculum (5 ml per kg, 1×10^8 CFU/ml of rat fecal bacterial composition) was injected slowly to avoid any leakage […]. Control animals were untreated. The therapeutic protocol of SkQR1 used to treat this pathology was as follows: […], with subsequent injections of the same amount of SkQR1 at 12, 24, 36 and 48 hrs; in total, each animal received 500 nmol SkQR1 per kg. […]
Kidney mitochondria were isolated by homogenization and differential centrifugation in a medium containing 250 mM sucrose, 20 mM HEPES-KOH, 1 mM EGTA and 0.1% BSA, pH7.4. Total mitochondrial protein was determined using a bicinchoninic acid protein assay kit (Sigma-Aldrich, USA). The mitochondria from cultured kidney cells were isolated by the same protocol.
as §1
The kidney was isolated immediately after sacrificing the animal and perfused with ice-cold PBS. It was then fixed in a 10% neutral buffered formalin solution, embedded in paraffin and used for histopathological examination. Five micrometer thick sections were cut, deparaffinized, hydrated, and stained with hematoxylin and eosin. The renal sections were examined in blinded fashion for inflammation and infiltration by leukocytes in the kidneys of all treated animals. A minimum of 10 fields for each kidney slide were examined and scored for pathologic severity.
The manifestation of inflammatory indicators (i.e., a number of infiltrated leukocytes in every layer and the presence of abscesses) under APN was evaluated using the following scale: 0, none; 1, 5-50 leukocytes in the view field; […]; 4, abscesses with pus-necrotic content. The distribution of inflammatory changes (i.e., comparative analysis of infiltration and abscesses) was evaluated by the following criteria: 0, none in any layer; 1, infiltration in the medullar layer; 2, infiltration reaching the cortex.
Kidney homogenates for MPO determination were centrifuged at 20000 g 15 min, the pellets were resuspended in 50 mM K-phosphate buffer containing 0.5% CTAB. Resulted samples were frozen and thawed three times and then centrifuged at 10600 g 10 min. Supernatants were analyzed for MPO activity in chromogenic reaction with o-phenylenediamine (OPD). 100 μl sample was mixed with 100 μl substrate buffer (25 mM Na-citrate, 50 mM Na-phosphate, 0.45 mg/ml OPD, 0.1% H2O2, pH 5.0) and was incubated 15 min at room temperature and then OD was detected at 492 nm.
Samples of kidney homogenates were loaded onto 15% Tris-glycine polyacrylamide gels (10-20 μg of total protein per lane). After electrophoresis, gels were blotted onto PVDF membranes (Amersham Pharmacia Biotech, UK). […]

## c1ccc2c(c1)[I+]c1ccccc1-2 [DPI, diphenyleneiodonium, reference compound]
[1]; 0.5 μM
  ROS production inside renal cells (DCF fluorescence): inhibited the ROS production

## [Cl-].[Li+] [LiCl, reference compound]
[1]
  renal cell death (Annexin V-positive): protected renal cells from death and its effect was more profound than of Trolox
  TNF release in RTC-leukocyte co-culture: did not have a significant effect
[1]; LiCl pre-treatment (9 mM)
  ROS production in renal cells (DCF fluorescence): had an antioxidative effect

## CC/N=c1/cc2oc3cc(NCC)c(C)cc3c(-c3ccccc3C(=O)OCCCCCCCCCCC3=CC(=O)C(C)=C(C)C3=O)c-2cc1C [SkQR1, 10-(6′-plastoquinonyl) decylrhodamine 19]
[1]; 10 nM, pretreatment 2 hr, co-cultivation with activated leukocytes
  ROS production in renal cells (DCF fluorescence): suppression of ROS production after co-cultivation with activated leukocytes to levels close to those observed on controls
[1]
  renal cell death (Annexin V-positive): more pronounced than that afforded by the traditional water-soluble antioxidant, Trolox; also recorded: highest efficiency
  TNF release in RTC-leukocyte co-culture: did not have a significant effect
Rat model of APN; 3 days after infection, SkQR1
  number of leukocytes in the blood: prevented an elevation
Rat model of APN; SkQR1 100 nmoles/kg ip at 1, 12, 24, 36, 48 hr after bacteria
  abscesses in kidneys of pyelonephritic rats: significantly less prevalent
Rat model of APN; SkQR1 100 nmoles/kg ip x5
  MDA concentration in whole kidney tissue: significantly lower
Rat model of APN; SkQR1 100 nmoles/kg ip x5, histology
  leukocyte infiltration in all kidney layers and spreading of the inflammatory process: inhibited
Rat model of APN; SkQR1-treated pyelonephritic rats vs APN rats without SkQR1
  kidney tissue concentration of TNFα: lower than in APN rats without SkQR1
Rat model of APN; SkQR1-treated rats
  activation of pro-inflammatory signaling pathways in peripheral leukocytes: suppressed
  other inflammation markers in blood (FIG. 8A-8C): decreased
Rat model of APN; SkQR1 during first two days after infection
  animal survival: significantly greater
Rat model of APN; Western blot
  Bcl-2 changes in isolated kidney mitochondria (weaker 26 kD band, stronger 15 kD band): diminished
Rat model of APN; Western blot, lower in untreated pyelonephritic rats
  level of IKB in leukocytes: lower in untreated pyelonephritic rats but not in SkQR1-treated rats
Rat model of APN; Western blot, lowering seen with pyelonephritis
  Bcl-2 level in total kidney homogenates: absent in pyelonephritic rats receiving SkQR1
Rat model of APN; activated under APN
  expression of toll receptors in different regions of the kidney: normal expression
Rat model of APN; kidney, SkQR1 100 nmoles/kg ip x5
  tissue activity of myeloperoxidase (MPO), index of neutrophil infiltration: significantly inhibited
Rat model of APN; leukocytes from pyelonephritic rats receiving SkQR1 vs untreated
  ROS production (DCF fluorescence) in blood leukocytes: lower than in untreated animals

## Cc1c(C)c2c(c(C)c1O)CCC(C)(C(=O)O)O2 (centres unmarked) [Trolox, reference compound]
[1]; 100 μM, pretreatment 2 hr, co-cultivation with activated leukocytes
  ROS production in renal cells (DCF fluorescence): suppression of ROS production after co-cultivation with activated leukocytes to levels close to those observed on controls
[1]
  TNF release in RTC-leukocyte co-culture: did not have a significant effect
